What was measured:
Assay type in all cases: cell-based, human
[1] = tested on: Malme-3M melanoma cells; test: Apoptosis by annexin-V/PI flow cytometry in Malme-3M
Description: FIG. 8. IRAK-1,-4 inhibition sensitized melanoma cells to vinblastine-mediated cytotoxicity. (A) A375 and Malme-3M melanoma cells were cultured with or without 2.5 μM of IRAK-1,-4 and in the presence varying concentrations of vinblastine, cisplatin or 5′ Fluorouracil. Forty-eight hours later apoptosis was evaluated by staining cells with annexin-V and propidium iodide and analyzed by flow cytometry. (B) A375 cells were transfected via electroporation with siRNA-IRAK-1,-4. IRAK-1 protein levels were examined by Western blotting. […], A375-psiRNA-hIRAK-1, A375-psiRNA-hIRAK-4, or cells expressing both psiRNA-hIRAK-1 and -4 were cultured in the presence of vinblastine (100 nmol/L) for 48 hours and apoptosis was examined by flow cytometry. (C) A375 melanoma cells were cultured in the presence of vehicle alone (DMSO) or various concentrations of IRAK-1,-4. Forty-eight hours later cell lysates were used to analyze the expression of levels of cleaved PARP or caspase-3 by Western blots. (D) A375 melanoma cells were cultured with or without 2.5 μM of IRAK.-1,-4 and in the presence or absence of vinblastine for 48 hrs. PARP and caspase-3 levels were determined by Western blot.
The TLR1-TLR2 ligand tripalmitoyl-S-(bis(palmitoyloxy)propyl)-Cys-Ser-(Lys)3-Lys (Pam3Cys) was purchased from Invivogen (San Diego, Calif., USA). […] In some experiments cells were treated with the indicated concentrations of IRAK.-1,-4 inhibitor and vinblastine, cisplatin, and 5-fluorouracil (Sigma-Aldrich, St. Louis, Mo.), and apoptosis was quantitated by flow cytometry after staining cells with FITC-labeled annexin-V (BD Pharmingen, San Jose, Calif.) and propidium iodide (PI; Sigma-Aldrich).

[2] = tested on: CCRF-CEM cells; test: Cell cycle analysis (PI staining); conditions: 5 uM
Description: Control and treated cells were collected, fixed and stained with propidium iodide (100 μg/mL) in PBS containing sodium citrate (1 mg/mL), Triton-X-100 (0.1%), and RNAse (20 μg/mL) for 30 min. Data were acquired on a BD FACScan flow cytometer using CellQuest software (BD Immunocytometry Systems, San Jose, Calif.) and analyzed by using FlowJo software (Tree Star, Inc., Ashland, Oreg.).
It was investigated whether the reduced proliferation that we observed with IRAK-1,-4 inhibitor (FIG. 11 and FIG. 12) was a result of cell cycle arrest or apoptosis. CCRF-CEM cells were treated with IRAK-1,-4 inhibitor for 24, 48, 72, and 96 hours.

[3] = tested on: CCRF-CEM cells; test: Western blot of signaling proteins in CCRF-CEM; conditions: 5 uM, 48 hours, FIG. 3D
Source text: (FIG. 3C). […] (FIG. 3D). […] (FIG. 3D).

[4] = tested on: C32 melanoma cells; test: Vinblastine-induced apoptosis in C32 (flow cytometry); conditions: vinblastine 100 nM with TLR1-TLR2 ligand 2.5 μg/ml, 48 hours, FIG. 20B
Description: FIG. 20. Role of TLR-induced cytokines and NF-kB on cell survival. (A) A375 melanoma cells were cultured in a 48-well plates in the presence or absence of NF-kB inhibitor NF-kB inhibitor SN50 (100 nM; Anaspec) with or without vinblastine (100 nM) or Doxorubicin (0.25 μg/ml). The percentage of apoptotic cells was measured by staining cells with Annexin and PI 48 hours later and analyzed by flow cytometry. (B) C32 melanoma cells were cultured in the presence of vinblastine (100 nM) and in the […] of TLR1-TLR2 ligand (2.5 μg/ml) or the presence of supernatant from TLR1-TLR2-stimulated A375 cells. After 48 hours, apoptosis was measured by flow cytometry. (C) A375 melanoma cells were cultured in the presence or absence of vinblastine (100 nM) and IL-1 (50 ng/ml; BioLegend), IL-18 (100 ng/ml; Medical and Biological Lab) or CXCL1 (50 ng/ml; R&D Systems). Apoptosis was measured 48 hours later by flow cytometry.
Alternatively, cytokines/chemokines produced in response to TLR-IRAK signaling might also contribute to the chemoprotective effects. Supernatant from TLR-1-TLR-2 stimulated or unstimulated A375 melanoma cells was added to the C32 melanoma cells in the presence or absence of vinblastine. Another group of cells were treated with TLR1-TLR2 ligand and apoptosis was examined by flow cytometry. […]

| Molecule | apoptosis with 5′-fluorouracil ([1]; Malme3M, IRAK-1,-4 inhibitor with 0-100 nmol/L 5′-fluorouracil) | sensitivity to vinblastine (apoptosis) ([1]; Malme-3M, 2.5 μmol/L IRAK-1,-4 inhibitor with 0-200 nmol/L vinblastine, 48 h) | cisplatin's cytotoxicity ([1]; Malme-3M, IRAK-1,-4 inhibitor with 0-50 nmol/L cisplatin) | decrease of percentage of cells in S phase ([2]; FIG. 14C) [%] | percentage of cells in G0/G1 phase ([2]; after 96 hours) [%] | percentage of cells in G0/G1 phase ([2]; within 24 hours (from 25%)) [%] | decrease of phosphorylated-p65 levels [3] | p-ERK1/2 levels [3] | reduction of p-AKT expression levels [3] | reduction of p-mTOR expression levels [3] | vinblastine-induced apoptosis [4] |
| --- | --- | --- | --- | --- | --- | --- | --- | --- | --- | --- | --- |
| O=C(Nc1nc2ccccc2n1CCN1CCOCC1)c1cccc([N+](=O)[O-])c1 [IRAK-1,-4 inhibitor] | appeared to enhance apoptosis | increased sensitivity | did not increase | ~30 | 50 | 43 | four-fold | did not alter | five-fold | approximately six-fold |  |
| tripalmitoyl-S-(bis(palmitoyloxy)propyl)-Cys-Ser-(Lys)3-Lys [Pam3Cysk4] |  |  |  |  |  |  |  |  |  |  | little effect |

— patent US9464326B2, “Total and phosphorylated IL-1 receptor-associated kinase-1 and IL-1 receptor-associated kinase-4 as a biomarker for cancer progression and chemotherapy resistance” (University of Maryland, Baltimore, priority 2012, dated 2016)
